{"source": "patent US20250075337A1", "about": "“SATURATED QUATERNARY AMMONIUM COMPOUNDS, GLUTARALDEHYDE, AND TETRAKIS(HYDROXYMETHYL)PHOSPHONIUM SULFATE FOR CORROSION INHIBITION, CLEANING, AND BIOCIDAL EFFICACY IN HYDROGEN SYSTEMS” (ChampionX LLC, priority 2023, published 2025)", "experiment": "Bubble cell test, corrosion rate by linear polarization resistance (LPR)", "conditions": "80° C., CO2 saturated 3% NaCl brine; 100 ppm active; about 15 hours after CI injection; versus uninhibited carbon steel electrode", "protocol": "Examples were conducted to assess the corrosion inhibition of a saturated alkyl diquaternary compounds of structure (IIIa) as described above using a bubble cell test to assess corrosion performance using linear polarization resistance testing. The corrosion inhibitor (CI) was evaluated without combination of any other chemistries or formulation components.\nThe corrosion rate was measured by Linear Polarization Resistance (LPR) techniques. The working electrode used was carbon steel (C1018 grade). The counter and reference electrodes were both 1018 carbon steel. The electrodes were all cleaned and polished prior to testing.\nThe test conditions included: 80° C., CO2 saturated fluids with 3% NaCl brine (100% brine) with continuous CO2 sparge, atmospheric pressure. A pre-corrosion time (i.e. with no corrosion inhibitor) was carried out for about 3 hours before 500 ppm of a 20% active chemistry in solvent blend was added. This is equivalent to 100 ppm of the active chemistry being introduced into the test cell. The inhibited corrosion rate at about 15 hours after CI chemical injection was noted and a percentage inhibition determined by comparing with the corrosion rate of a carbon steel electrode under otherwise the same conditions in the absence of chemical corrosion inhibitor after the same time of exposure to the corrosive environment.", "data": [{"smiles": "CCCCCCCCCCCCCCCCCC[N+](C)(C)CC(O)C[N+](CCO)(CCO)CCO", "note": "(stereo not shown) [CI Structure IIIa]", "values": [{"measurement": "% Protection", "result": ">99", "unit": "%"}]}]}
